Molecular target: T1, GIVA cPLA2 (cPLA2α) (Homo sapiens, UniProt P47712)
T1 construct: gene PLA2G4A
T1 sequence (P47712 1-749): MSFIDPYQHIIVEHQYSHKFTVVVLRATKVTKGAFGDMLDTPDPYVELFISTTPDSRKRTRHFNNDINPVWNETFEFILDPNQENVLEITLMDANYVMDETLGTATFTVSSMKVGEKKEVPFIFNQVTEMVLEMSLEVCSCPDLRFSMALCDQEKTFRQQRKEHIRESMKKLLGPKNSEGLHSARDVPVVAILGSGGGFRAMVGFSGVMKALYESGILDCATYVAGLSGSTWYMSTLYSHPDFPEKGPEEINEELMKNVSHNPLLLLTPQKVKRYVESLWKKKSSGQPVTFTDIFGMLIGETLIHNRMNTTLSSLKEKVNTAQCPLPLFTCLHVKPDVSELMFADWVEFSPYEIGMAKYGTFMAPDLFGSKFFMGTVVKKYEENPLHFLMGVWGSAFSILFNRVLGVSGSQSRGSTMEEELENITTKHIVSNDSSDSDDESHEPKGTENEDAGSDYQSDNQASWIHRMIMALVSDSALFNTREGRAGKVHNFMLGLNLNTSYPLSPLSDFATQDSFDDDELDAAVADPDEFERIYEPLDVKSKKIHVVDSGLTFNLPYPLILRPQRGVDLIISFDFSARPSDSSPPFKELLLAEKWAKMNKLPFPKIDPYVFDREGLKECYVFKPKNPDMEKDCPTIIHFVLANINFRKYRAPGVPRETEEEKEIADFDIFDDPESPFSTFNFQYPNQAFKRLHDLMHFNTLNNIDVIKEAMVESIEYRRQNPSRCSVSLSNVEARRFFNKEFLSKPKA
Assay: in vitro mixed micelle modified Dole assay ([…]-PAPC)
Assay type: biochemical

| In vitro enzyme activity / GIVA cPLA2 / XI(50) | SMILES |
| --- | --- |
| 0.0072 ± 0.0007 mole fraction (XI(50)) | CC/C=C\C/C=C\C/C=C\C/C=C\CC/C=C/CSCC(=O)C(F)(F)F [AVX001, (6E,10Z,13Z,16Z,19Z)-1,1,1-trifluoro-4-thiadocosa-6,10,13,16,19-pentaen-2-one] |
| 0.0057 ± 0.001 mole fraction (XI(50)) | CC/C=C\C/C=C\C/C=C\C/C=C\C/C=C\CCSCC(=O)C(F)(F)F [AVX002, 1,1,1-trifluoro-3-(((3Z,6Z,9Z,12Z,15Z)-octadeca-3,6,9,12,15-pentaen-1-yl)thio)propan-2-one] |

From paper PMC6341602, “Cytosolic group IVA phospholipase A2 inhibitors, AVX001 and AVX002, ameliorate collagen-induced arthritis” (Arthritis Research & Therapy, 2019)
